Test results taken from US20260216226A1, “TRIPLE COMBINED THERAPY INHIBITING EGFR, RAF1 AND STAT3 AGAINST PANCREATIC DUCTAL ADENOCARCINOMA” (FUNDACION DEL SECTOR PUBLICO ESTATAL CENTRO NACIONAL DE …, priority 2023, published 2026).

Experiments:
[1] = system: pancreatic ductal adenocarcinoma (PDAC); settings: adjuvant treatment, patients with resectable disease; cited from earlier work
STAT3 [2] = settings: Kras mutant pancreatic and colon cancer cells; cited from earlier work
[3] = system: NR PDACs (tumors of big sizes); experiment: Tumor growth monitored by ultrasound in genetically engineered mice; format: in vivo, mouse; settings: NR triple: SD-36 50 mg/kg daily added to tamoxifen and Afatinib 20 mg/kg daily
Experimental: (§1) Silencing of Egfr, Raf1 and Stat3 was mediated with the lentiviral short hairpin RNA (shRNA) plasmids TRCN0000055218, TRCN0000012628 and TRCN0000071453 respectively. The non-target shRNA vector was used as control. The pharmacological treatments were conducted with the following agents: Afatinib (20 mg/kg, daily), SD-36 (50 mg/kg, daily).
It was also included in the combined treatment Afatinib (a tyrosine receptor kinase inhibitor against EGFR) and SD-36 (PROTAC degrader against STAT3).

STAT3 [4] = biological target: T1, STAT3 (Mus musculus, UniProt P42227); experiment: Western blot analysis of STAT3 expression in cell-lysate extracts; format: cell-based; settings: NR PDAC cells treated with SD-36; GAPDH loading control
T1 construct: Western blot analysis of the expression of STAT3 of cell-lysate extracts; endogenous in cells; host or cells: Egfr lox/lox; Raf1 lox/lox PDAC (NR) tumor cells infected with Adeno-GFP or Adeno-CRE
Experimental: (§2) FIG. 2. A. Colony formation assay of Egfr^lox/lox; Raf1^lox/lox PDAC cells infected with Adeno-GFP and Adeno-CRE viral particles in combination with treatment with 1 μM SD-36. 5000 cells were seeded for 10 days and culture medium was changed every day. B. Western blot analysis of the expression of STAT3 of cell-lysate extracts. GAPDH was used as loading control.
The expression of STAT3 was targeted by shRNAs after genetic deletion of Egfr and Raf1 in NR cells by Adeno-GFP and Adeno-GFP-CRE infection. […] NR tumor cells, previously infected with Adeno-GFP and Adeno-GFP-CRE virus to eliminate the EGFR and the Raf1 (floxed targets), were treated with SD-36 for 10 days in a colony formation assay. Elimination of the targets was very efficient.

[5] = system: Egfr^lox/lox; Raf1^lox/lox PDAC cells; experiment: Colony formation assay of NR PDAC cells infected with Adeno-GFP or Adeno-CRE; format: cell-based; settings: 1 μM SD-36, 10 days
Experimental: FIG. 1. Colony formation assay of Egfr^lox/lox; Raf1^lox/lox PDAC cells infected with Adeno-GFP and Adeno-CRE viral particles in combination with small-hairpin RNA (shRNA) against STAT3 and Scr (empty vector) as control. 5000 cells were seeded for 10 days. B. Western blot analysis of the expression of EGFR, RAF1 and STAT3 of cell-lysate extracts. GAPDH was used as loading control.
as §2, §1
The expression of STAT3 was targeted by shRNAs after genetic deletion of Egfr and Raf1 in NR cells by Adeno-GFP and Adeno-GFP-CRE infection. […]

T1 sequence (P42227 whole entry): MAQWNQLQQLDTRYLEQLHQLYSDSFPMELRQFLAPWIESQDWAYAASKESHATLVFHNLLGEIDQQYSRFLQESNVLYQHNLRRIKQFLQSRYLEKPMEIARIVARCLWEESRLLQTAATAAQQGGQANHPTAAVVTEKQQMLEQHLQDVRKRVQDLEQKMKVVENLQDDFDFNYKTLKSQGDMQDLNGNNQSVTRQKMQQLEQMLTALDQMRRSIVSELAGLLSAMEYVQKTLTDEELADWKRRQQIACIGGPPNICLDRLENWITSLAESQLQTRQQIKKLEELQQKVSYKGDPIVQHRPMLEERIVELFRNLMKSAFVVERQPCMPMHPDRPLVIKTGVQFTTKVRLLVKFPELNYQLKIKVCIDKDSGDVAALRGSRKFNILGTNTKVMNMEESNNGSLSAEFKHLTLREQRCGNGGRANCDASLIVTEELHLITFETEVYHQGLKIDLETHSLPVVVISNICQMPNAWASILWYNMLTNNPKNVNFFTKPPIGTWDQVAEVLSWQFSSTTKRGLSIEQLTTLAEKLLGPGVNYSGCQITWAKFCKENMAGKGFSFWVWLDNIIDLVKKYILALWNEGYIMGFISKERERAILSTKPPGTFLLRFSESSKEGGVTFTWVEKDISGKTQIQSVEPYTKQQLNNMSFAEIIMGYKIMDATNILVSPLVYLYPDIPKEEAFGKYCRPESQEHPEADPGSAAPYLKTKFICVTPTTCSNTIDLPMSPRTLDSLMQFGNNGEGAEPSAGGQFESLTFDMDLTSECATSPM

FOLFIRINOX
median overall survival (OS) [1]: 54 months

COc1cccc(-c2cc(=O)c3ccccc3o2)c1N [PD98059]
STAT3 activation (STAT3 [2]): significantly activated

Cn1cnc2c(F)c(Nc3ccc(Br)cc3Cl)c(C(=O)NOCCO)cc21 [AZD6244]
STAT3 activation (STAT3 [2]): significantly activated

NC(=O)CC[C@H](NC(=O)[C@@H]1CC[C@@H]2CCN(C(=O)CCCCCC#Cc3cccc4c3CN(C3CCC(=O)NC3=O)C4=O)C[C@H](NC(=O)c3cc4cc(C(F)(F)P(=O)(O)O)ccc4[nH]3)C(=O)N21)C(=O)NC(c1ccccc1)c1ccccc1 (stereo partly shown) [SD-36]
tumor growth [3]: significant delay and slight reduction of tumor growth
STAT3 degradation (STAT3 [4]): effectively degraded STAT3
growth of NR cells that express Egfr and Raf1 (toxicity) ([5]; Adeno-GFP infected NR cells, versus vehicle control): grew similarly as the vehicle control
colony formation / cell death of NR tumor cells ([5]; NR cells after deletion of Egfr and Raf1 (Adeno-CRE)): cell death of NR tumor cells
